Results reported in patent publication US20140024638A1, “TREATMENT OF COGNITIVE DYSFUNCTION IN SCHIZOPHRENIA” (TARGACEPT, INC., priority 2011, published 2014).

Key:
Type in all cases: in vivo, human
[1] = system: patients with schizophrenia; assay: Groton Maze Learning Task (GMLT) of the CogState Schizophrenia Battery, Phase 2 trial; settings: for GML (Total Error) LOG: Adjusted Mean / GML (Total Error) LOG: Mean Difference ± SE between TC-5619 and Placebo (Placebo-TC5619): All Patients; for GMLT primary efficacy outcome measure: result against protocol criteria: positive outcome = superiority over placebo, one-sided p-value <0.10 after adjusting for 3 comparisons (Weeks 4, 8, 12), adjusted p-value=0.054, unadjusted p 0.018 at 4 weeks, 0.041 at 12 weeks; for GMLT log (10) transformed: Mean (SE): tobacco users
Experimental: (§1) The double blind, placebo controlled Phase 2 trial was conducted at 7 sites in the United States and 12 sites in India. […] Of the randomized patients, approximately 69% were male and approximately 46% were users of tobacco products. […] The primary efficacy outcome measure was GMLT, and the trial included a number of other scales as secondary efficacy outcome measures.
The GMLT is a computerized test designed to assess executive function (the ability to organize cognitive processes, including the ability to plan, prioritize, stop and start activities, shift from one activity to another activity and to monitor one's own behavior). Impaired executive function is thought to be an important aspect of cognitive dysfunction in schizophrenia.

[2] = system: patients with schizophrenia; assay: Scale for Assessment of Negative Symptoms (SANS), Phase 2 trial; settings: for SANS TOTAL SCORE: Adjusted Mean / SANS TOTAL SCORE: Mean Difference ± SE between TC-5619 and Placebo (Placebo-TC5619): All Patients; for SANS: Mean (SE): tobacco users; for SANS: Mean (SEM): total population
Experimental: as §1

[3] = system: patients with schizophrenia; assay: Clinical Global Impression - Global Improvement (CGI-I, CGI Global Change), Phase 2 trial; settings: for CGI Global Change: Adjusted Mean / CGI Global Change: Mean Difference ± SE between TC-5619 and Placebo (Placebo-TC5619): All Patients; for CGI-I: Mean (SE): tobacco users; for CGI-I: Mean (SEM): total population
Experimental: as §1

O=C(N[C@@H]1C2CCN(CC2)[C@H]1Cc1cccnc1)c1cc2ccccc2o1 (single isomer, unassigned) [TC-5619]
GML (Total Error) LOG: Adjusted Mean ([1]; Week 1, 1 mg daily, SE 0.01, placebo −0.02): −0.01 | GML (Total Error) LOG: Mean Difference ± SE between TC-5619 and Placebo (Placebo-TC5619) ([1]; Week 1, 1 mg daily, one-sided 90% CI (−0.03, ∞), one-sided P 0.6709): −0.01 ± 0.02 | GML (Total Error) LOG: Adjusted Mean ([1]; Week 4, 1 mg daily, SE 0.02, placebo 0.02): −0.03 | GML (Total Error) LOG: Mean Difference ± SE between TC-5619 and Placebo (Placebo-TC5619) ([1]; Week 4, 1 mg daily, one-sided 90% CI (0.02, ∞), one-sided P 0.0180): 0.05 ± 0.02 | GML (Total Error) LOG: Adjusted Mean ([1]; Week 8, 5 mg daily, SE 0.02, placebo −0.02): −0.05 | GML (Total Error) LOG: Mean Difference ± SE between TC-5619 and Placebo (Placebo-TC5619) ([1]; Week 8, 5 mg daily, one-sided 90% CI (−0.00, ∞), one-sided P 0.1308): 0.02 ± 0.02 | GML (Total Error) LOG: Adjusted Mean ([1]; Week 12, 25 mg daily, SE 0.02, placebo −0.02): −0.06 | GML (Total Error) LOG: Mean Difference ± SE between TC-5619 and Placebo (Placebo-TC5619) ([1]; Week 12, 25 mg daily, one-sided 90% CI (0.01, ∞), one-sided P 0.0405): 0.04 ± 0.02 | GMLT activity in non-users of tobacco ([1]; non-users): no activity | GMLT primary efficacy outcome measure: result against protocol criteria [1]: met the pre-defined success criteria | GMLT primary efficacy outcome measure: result against protocol criteria ([1]; listed as (2S,3R)—N-(2-((3-pyridinyl)methyl)-1-azabicyclo[2.2.2]oct-3-yl)benzofuran-2-carb): met the protocol criteria for a positive result | GMLT results, patients at study sites in United States as compared to study sites in India ([1]; subgroup comparison): favorable | GMLT results, tobacco users as compared to non-users ([1]; subgroup comparison): favorable for tobacco users as compared to non-users | GMLT log (10) transformed: Mean (SE) ([1]; Week 4, 1 mg daily, 1-tailed p = 0.014): 0.06 (.03) p = 0.014 | GMLT log (10) transformed: Mean (SE) ([1]; Week 8, 5 mg daily, 1-tailed p = 0.086): 0.04 (0.03) p = 0.086 | GMLT log (10) transformed: Mean (SE) ([1]; Week 12, 25 mg daily, 1-tailed p = 0.002): 0.07 (0.02) p = 0.002 | GMLT log (10) transformed: Mean (SEM) ([1]; total population (tobacco users and non-users), Week 4, 1 mg daily, 1-tailed p = 0.018): 0.05 (0.02); p = 0.018 | GMLT log (10) transformed: Mean (SEM) ([1]; total population, Week 8, 5 mg daily, 1-tailed p = 0.131): 0.02 (0.02); p = 0.131 | GMLT log (10) transformed: Mean (SEM) ([1]; total population, Week 12, 25 mg daily, 1-tailed p = 0.041): 0.04 (0.02); p = 0.041 | SANS TOTAL SCORE: Adjusted Mean ([2]; Week 1, 1 mg daily, SE 0.93, placebo −0.92): −1.20 | SANS TOTAL SCORE: Mean Difference ± SE between TC-5619 and Placebo (Placebo-TC5619) ([2]; Week 1, 1 mg daily, one-sided 90% CI (−0.77, ∞), one-sided P 0.3647): 0.28 ± 0.82 | SANS TOTAL SCORE: Adjusted Mean ([2]; Week 4, 1 mg daily, SE 1.11, placebo −2.74): −3.52 | SANS TOTAL SCORE: Mean Difference ± SE between TC-5619 and Placebo (Placebo-TC5619) ([2]; Week 4, 1 mg daily, one-sided 90% CI (−0.74, ∞), one-sided P 0.2547): 0.78 ± 1.18 | SANS TOTAL SCORE: Adjusted Mean ([2]; Week 8, 5 mg daily, SE 1.25, placebo −5.55): −7.25 | SANS TOTAL SCORE: Mean Difference ± SE between TC-5619 and Placebo (Placebo-TC5619) ([2]; Week 8, 5 mg daily, one-sided 90% CI (−0.14, ∞), one-sided P 0.1184): 1.71 ± 1.44 | SANS TOTAL SCORE: Adjusted Mean ([2]; Week 12, 25 mg daily, SE 1.40, placebo −6.23): −9.93 | SANS TOTAL SCORE: Mean Difference ± SE between TC-5619 and Placebo (Placebo-TC5619) ([2]; Week 12, 25 mg daily, one-sided 90% CI (1.53, ∞), one-sided P 0.0147): 3.70 ± 1.68 | SANS, result in words ([2]; secondary outcome measure, investigator assessment of negative symptoms): encouraging efficacy signals | SANS: Mean (SE) ([2]; Week 4, 1 mg daily, 1-tailed p = 0.098): 2.74 (2.10); p = 0.098 | SANS: Mean (SE) ([2]; Week 8, 5 mg daily, 1-tailed p = 0.054): 4.00 (2.45); p = 0.054 | SANS: Mean (SE) ([2]; Week 12, 25 mg daily, 1-tailed p = 0.033): 4.86 (2.58); p = 0.033 | SANS: Mean (SEM) ([2]; Week 4, 1 mg daily, 1-tailed p = 0.255): 0.78 (1.18); p = 0.255 | SANS: Mean (SEM) ([2]; Week 8, 5 mg daily, 1-tailed p = 0.118): 1.71 (1.44); p = 0.118 | SANS: Mean (SEM) ([2]; Week 12, 25 mg daily, 1-tailed p = 0.015): 3.70 (1.68); p = 0.015 | CGI Global Change: Adjusted Mean ([3]; Week 1, 1 mg daily, SE 0.15, placebo 3.80): 3.77 | CGI Global Change: Mean Difference ± SE between TC-5619 and Placebo (Placebo-TC5619) ([3]; Week 1, 1 mg daily, one-sided 90% CI (−0.06, ∞), one-sided P 0.3434): 0.03 ± 0.07 | CGI Global Change: Adjusted Mean ([3]; Week 4, 1 mg daily, SE 0.16, placebo 3.64): 3.49 | CGI Global Change: Mean Difference ± SE between TC-5619 and Placebo (Placebo-TC5619) ([3]; Week 4, 1 mg daily, one-sided 90% CI (0.04, ∞), one-sided P 0.0485): 0.15 ± 0.09 | CGI Global Change: Adjusted Mean ([3]; Week 8, 5 mg daily, SE 0.16, placebo 3.30): 3.22 | CGI Global Change: Mean Difference ± SE between TC-5619 and Placebo (Placebo-TC5619) ([3]; Week 8, 5 mg daily, one-sided 90% CI (−0.07, ∞), one-sided P 0.2533): 0.08 ± 0.12 | CGI Global Change: Adjusted Mean ([3]; Week 12, 25 mg daily, SE 0.17, placebo 3.18): 3.03 | CGI Global Change: Mean Difference ± SE between TC-5619 and Placebo (Placebo-TC5619) ([3]; Week 12, 25 mg daily, one-sided 90% CI (−0.03, ∞), one-sided P 0.1502): 0.15 ± 0.14 | Clinical Global Impression - Global Improvement, result in words ([3]; secondary outcome measure, investigator assessment of overall response): encouraging efficacy signals | CGI-I: Mean (SE) ([3]; Week 4, 1 mg daily, 1-tailed p = 0.047): 0.25 (0.14); p = 0.047 | CGI-I: Mean (SE) ([3]; Week 8, 5 mg daily, 1-tailed p = 0.075): 0.24 (0.16); p = 0.075 | CGI-I: Mean (SE) ([3]; Week 12, 25 mg daily, 1-tailed p = 0.189): 0.18 (0.20); p = 0.189 | CGI-I: Mean (SEM) ([3]; Week 4, 1 mg daily, 1-tailed p = 0.049): 0.15 (0.09); p = 0.049 | CGI-I: Mean (SEM) ([3]; Week 8, 5 mg daily, 1-tailed p = 0.253): 0.08 (0.12); p = 0.253 | CGI-I: Mean (SEM) ([3]; Week 12, 25 mg daily, 1-tailed p = 0.150): 0.15 (0.14); p = 0.150
